Patent US9833497B2, “Human originated EGF domain proteins and use of the same” (CHENGDU SOURCEBIO LIMITED-LIABILITY COMPANY, priority 2013, dated 2017)

Columns and labels:
Type in all cases: cell-based
Pseudomonas aeruginosa = assay: MIC against Gram-negative bacteria: Pseudomonas aeruginosa; conditions: 5×10^5 CFU/mL
Procedure, shortened: (§1)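 Purified recombinant human EGF domain proteins are tested by broth dilution in LB against a 5×10^5 CFU/mL inoculum, with two-fold serial dilutions run in triplicate. Plates are incubated at 37° C with shaking, and the MIC is read as the lowest protein concentration without growth.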

Aeromonas hydrophila = assay: MIC against Gram-negative bacteria: Aeromonas hydrophila; conditions: 5×10^5 CFU/mL
Procedure, shortened: as §1

Moraxella catarrhalis = assay: MIC against Gram-negative bacteria: Moraxella catarrhalis; conditions: 5×10^5 CFU/mL
Procedure, shortened: as §1

Citrobacter diversus = assay: MIC against Gram-negative bacteria: Citrobacter diversus; conditions: 5×10^5 CFU/mL
Procedure, shortened: as §1

Proteus vulgaris = assay: MIC against Gram-negative bacteria: Proteus vulgaris; conditions: 5×10^5 CFU/mL
Procedure, shortened: as §1

E. coli DH5α = assay: Antibacterial activity: MIC and growth curve against E. coli DH5α in 96-well plate; conditions: minimal inhibitory concentration against E. coli DH5α; 96-well plate, 5×10^5 CFU/mL, 37° C., judged after 8 h
Procedure, shortened: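 Log-phase DH5α (OD600 about 0.5, 37° C, 185 rpm in LB) was pelleted, resuspended in fresh LB and seeded at 5×10^5 CFU/mL with recombinant protein at 50, 25 and 12.5 μg/mL (two-fold series), in triplicate. Plates were shaken at 175 rpm, 37° C, and OD600 was read every 30 min. MIC was the lowest concentration with no growth.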

Enterobacter cloacae = assay: MIC against Gram-negative bacteria: Enterobacter cloacae; conditions: 5×10^5 CFU/mL
Procedure, shortened: as §1

Serratia marcescens = assay: MIC against Gram-negative bacteria: Serratia marcescens; conditions: 5×10^5 CFU/mL
Procedure, shortened: as §1

Klebsiella pneumonia = assay: MIC against Gram-negative bacteria: Klebsiella pneumonia; conditions: 5×10^5 CFU/mL
Procedure, shortened: as §1

Proteus mirabilis = assay: MIC against Gram-negative bacteria: Proteus mirabilis; conditions: 5×10^5 CFU/mL
Procedure, shortened: as §1

E. coli BL21 = assay: MIC against Gram-negative bacteria: E. coli BL21; conditions: 5×10^5 CFU/mL
Procedure, shortened: as §1

[1] = P. aeruginosa, 10 h cultivation at 37° C.
[2] = A. hydrophila, 10 h cultivation at 37° C.
[3] = M. catarrhalis, 10 h cultivation at 37° C.
[4] = C. diversus, 10 h cultivation at 37° C.
[5] = P. vulgaris, 10 h cultivation at 37° C.
[6] = E. cloacae, 10 h cultivation at 37° C.
[7] = S. marcescens, 10 h cultivation at 37° C.
[8] = K. pneumonia, 10 h cultivation at 37° C.
[9] = P. mirabilis, 10 h cultivation at 37° C.
[10] = E. coli BL21, 10 h cultivation at 37° C.
[11] = 10 h cultivation at 37° C., two-fold serial dilution
[12] = Pseudomonas aeruginosa, 96-well plate, 37° C., 10 h
[13] = Aeromonas hydrophila, 96-well plate, 37° C., 10 h
[14] = Moraxella catarrhalis, 96-well plate, 37° C., 10 h
[15] = Citrobacter diversus, 96-well plate, 37° C., 10 h
[16] = Proteus vulgaris, 96-well plate, 37° C., 10 h
[17] = Enterobacter cloacae, 96-well plate, 37° C., 10 h
[18] = Serratia marcescens, 96-well plate, 37° C., 10 h
[19] = Klebsiella pneumonia, 96-well plate, 37° C., 10 h
[20] = Proteus mirabilis, 96-well plate, 37° C., 10 h
[21] = E. coli BL21, 96-well plate, 37° C., 10 h

Substance: PRT761 (RKDVCQAIDHGCEHICVNSDDSYTCECLEGFRLAEDGKRCR; listed as Homo sapiens)
- MIC (μg/mL) P. aeruginosa (Pseudomonas aeruginosa; [1]): 50 µg/mL
- MIC (μg/mL) A. hydrophila (Aeromonas hydrophila; [2]): 25 µg/mL
- MIC (μg/mL) M. catarrhalis (Moraxella catarrhalis; [3]): 25 µg/mL
- MIC (μg/mL) C. diversus (Citrobacter diversus; [4]): 12.5 µg/mL
- MIC (μg/mL) P. vulgaris (Proteus vulgaris; [5]): 12.5 µg/mL
- MIC (E. coli DH5α): 50 µg/mL
- MIC (μg/mL) E. cloacae (Enterobacter cloacae; [6]): 50 µg/mL
- MIC (μg/mL) S. marcescens (Serratia marcescens; [7]): 25 µg/mL
- MIC (μg/mL) K. pneumonia (Klebsiella pneumonia; [8]): 12.5 µg/mL
- MIC (μg/mL) P. mirabilis (Proteus mirabilis; [9]): 50 µg/mL
- MIC (μg/mL) E. coli BL21 (E. coli BL21; [10]): 12.5 µg/mL

Substance: PRT317 (VTDYCQLVRYLCQNGRCIPTPGSCRCECNKGFQLDLRGECI; listed as Homo sapiens)
- MIC (Pseudomonas aeruginosa; [1]): 12.5 µg/mL
- MIC (Aeromonas hydrophila; [2]): 25 µg/mL
- MIC (Moraxella catarrhalis; [3]): 25 µg/mL
- MIC (Citrobacter diversus; [4]): 12.5 µg/mL
- MIC (Proteus vulgaris; [5]): 12.5 µg/mL
- MIC (E. coli DH5α): 12.5 µg/mL
- MIC (Enterobacter cloacae; [6]): 12.5 µg/mL
- MIC (Serratia marcescens; [7]): 12.5 µg/mL
- MIC (Klebsiella pneumonia; [8]): 50 µg/mL
- MIC (Proteus mirabilis; [9]): 12.5 µg/mL
- MIC (E. coli BL21; [10]): 50 µg/mL

Substance: PRT1116 (DIDECASRPCHHGATCRNLADRYECHCPLGYAGVTCE; listed as Homo sapiens)
- MIC P. aeruginosa (Pseudomonas aeruginosa; [11]): 25 µg/mL
- MIC A. hydrophila (Aeromonas hydrophila; [11]): 25 µg/mL
- MIC M. catarrhalis (Moraxella catarrhalis; [11]): 25 µg/mL
- MIC C. diversus (Citrobacter diversus; [11]): 12.5 µg/mL
- MIC P. vulgaris (Proteus vulgaris; [11]): 25 µg/mL
- MIC (E. coli DH5α): 25 µg/mL
- MIC E. cloacae (Enterobacter cloacae; [11]): 25 µg/mL
- MIC S. marcescens (Serratia marcescens; [11]): 12.5 µg/mL
- MIC K. pneumonia (Klebsiella pneumonia; [11]): 12.5 µg/mL
- MIC P. mirabilis (Proteus mirabilis; [11]): 50 µg/mL
- MIC E. coli BL21 (E. coli BL21; [11]): 12.5 µg/mL

Substance: PRT808 (YGPNCSSICSCNNGGTCSPVDGSCTCKEGWQGLDCT; listed as Homo sapiens)
- MIC (μg/mL) P. aeruginosa (Pseudomonas aeruginosa; [1]): 12.5 µg/mL
- MIC (μg/mL) A. hydrophila (Aeromonas hydrophila; [2]): 12.5 µg/mL
- MIC (μg/mL) M. catarrhalis (Moraxella catarrhalis; [3]): 50 µg/mL
- MIC (μg/mL) C. diversus (Citrobacter diversus; [4]): 25 µg/mL
- MIC (μg/mL) P. vulgaris (Proteus vulgaris; [5]): 12.5 µg/mL
- MIC (E. coli DH5α): 25 µg/mL
- MIC (μg/mL) E. cloacae (Enterobacter cloacae; [6]): 25 µg/mL
- MIC (μg/mL) S. marcescens (Serratia marcescens; [7]): 50 µg/mL
- MIC (μg/mL) K. pneumonia (Klebsiella pneumonia; [8]): 50 µg/mL
- MIC (μg/mL) P. mirabilis (Proteus mirabilis; [9]): 25 µg/mL
- MIC (μg/mL) E. coli BL21 (E. coli BL21; [10]): 50 µg/mL

Substance: PRT753 (RKDVCKSTHHGCEHICVNNGNSYICKCSEGFVLAEDGRRCK; listed as Homo sapiens)
- MIC (μg/mL) P. aeruginosa (Pseudomonas aeruginosa; [1]): 12.5 µg/mL
- MIC (μg/mL) A. hydrophila (Aeromonas hydrophila; [2]): 50 µg/mL
- MIC (μg/mL) M. catarrhalis (Moraxella catarrhalis; [3]): 50 µg/mL
- MIC (μg/mL) C. diversus (Citrobacter diversus; [4]): 12.5 µg/mL
- MIC (μg/mL) P. vulgaris (Proteus vulgaris; [5]): 25 µg/mL
- MIC (E. coli DH5α): 25 µg/mL
- MIC (μg/mL) E. cloacae (Enterobacter cloacae; [6]): 12.5 µg/mL
- MIC (μg/mL) S. marcescens (Serratia marcescens; [7]): 50 µg/mL
- MIC (μg/mL) K. pneumonia (Klebsiella pneumonia; [8]): 50 µg/mL
- MIC (μg/mL) P. mirabilis (Proteus mirabilis; [9]): 12.5 µg/mL
- MIC (μg/mL) E. coli BL21 (E. coli BL21; [10]): 50 µg/mL

Substance: PRT1199 (AFCEEGCRYGGTCVAPNKCVCPSGFTGSHCE; listed as Homo sapiens)
- MIC against P. aeruginosa (Pseudomonas aeruginosa; [12]): 50 µg/mL
- MIC against A. hydrophila (Aeromonas hydrophila; [13]): 25 µg/mL
- MIC against M. catarrhalis (Moraxella catarrhalis; [14]): 12.5 µg/mL
- MIC against C. diversus (Citrobacter diversus; [15]): 25 µg/mL
- MIC against P. vulgaris (Proteus vulgaris; [16]): 50 µg/mL
- MIC (E. coli DH5α): 50 µg/mL
- MIC against E. cloacae (Enterobacter cloacae; [17]): 50 µg/mL
- MIC against S. marcescens (Serratia marcescens; [18]): 25 µg/mL
- MIC against K. pneumonia (Klebsiella pneumonia; [19]): 12.5 µg/mL
- MIC against P. mirabilis (Proteus mirabilis; [20]): 25 µg/mL
- MIC against E. coli BL21 (E. coli BL21; [21]): 12.5 µg/mL

Substance: PRT541 (CSCDLRGTLGGVAECQPGTGQCFCKPHVCGQACASCKDGFFGLDQADYFGCRS; listed as Homo sapiens)
- MIC against P. aeruginosa (Pseudomonas aeruginosa; 96-well plate, 37° C., 10 h): 100 µg/mL
- MIC against A. hydrophila (Aeromonas hydrophila; 96-well plate, 37° C., 10 h): 50 µg/mL
- MIC against M. catarrhalis (Moraxella catarrhalis; 96-well plate, 37° C., 10 h): 50 µg/mL
- MIC against C. diversus (Citrobacter diversus; 96-well plate, 37° C., 10 h): 12.5 µg/mL
- MIC against P. vulgaris (Proteus vulgaris; 96-well plate, 37° C., 10 h): 25 µg/mL
- MIC (E. coli DH5α): 12.5 µg/mL
- MIC against E. cloacae (Enterobacter cloacae; 96-well plate, 37° C., 10 h): 12.5 µg/mL
- MIC against S. marcescens (Serratia marcescens; 96-well plate, 37° C., 10 h): 50 µg/mL
- MIC against K. pneumonia (Klebsiella pneumonia; 96-well plate, 37° C., 10 h): 50 µg/mL
- MIC against P. mirabilis (Proteus mirabilis; 96-well plate, 37° C., 10 h): 12.5 µg/mL
- MIC against E. coli BL21 (E. coli BL21; 96-well plate, 37° C., 10 h): 50 µg/mL

Substance: PRT706 (EVNHCSNYCQNGGTCVPSVLGRPTCSCALGFTGPNCG; listed as Homo sapiens)
- MIC P. aeruginosa (Pseudomonas aeruginosa; 96-well plate, 37° C., 10 h): 12.5 µg/mL
- MIC A. hydrophila (Aeromonas hydrophila; 96-well plate, 37° C., 10 h): 50 µg/mL
- MIC M. catarrhalis (Moraxella catarrhalis; 96-well plate, 37° C., 10 h): 50 µg/mL
- MIC C. diversus (Citrobacter diversus; 96-well plate, 37° C., 10 h): 12.5 µg/mL
- MIC P. vulgaris (Proteus vulgaris; 96-well plate, 37° C., 10 h): 50 µg/mL
- MIC (E. coli DH5α): 25 µg/mL
- MIC E. cloacae (Enterobacter cloacae; 96-well plate, 37° C., 10 h): 25 µg/mL
- MIC S. marcescens (Serratia marcescens; 96-well plate, 37° C., 10 h): 12.5 µg/mL
- MIC K. pneumonia (Klebsiella pneumonia; 96-well plate, 37° C., 10 h): 12.5 µg/mL
- MIC P. mirabilis (Proteus mirabilis; 96-well plate, 37° C., 10 h): 12.5 µg/mL
- MIC E. coli BL21 (E. coli BL21; 96-well plate, 37° C., 10 h): 50 µg/mL

Substance: PRT1224 (PPGDCASHPCQNGGSCEPGLHSGFTCSCPDSHTGRTCE; listed as Homo sapiens)
- MIC against P. aeruginosa (Pseudomonas aeruginosa; [12]): 25 µg/mL
- MIC against A. hydrophila (Aeromonas hydrophila; [13]): 50 µg/mL
- MIC against M. catarrhalis (Moraxella catarrhalis; [14]): 25 µg/mL
- MIC against C. diversus (Citrobacter diversus; [15]): 12.5 µg/mL
- MIC against P. vulgaris (Proteus vulgaris; [16]): 12.5 µg/mL
- MIC (E. coli DH5α): 25 µg/mL
- MIC against E. cloacae (Enterobacter cloacae; [17]): 25 µg/mL
- MIC against S. marcescens (Serratia marcescens; [18]): 50 µg/mL
- MIC against K. pneumonia (Klebsiella pneumonia; [19]): 12.5 µg/mL
- MIC against P. mirabilis (Proteus mirabilis; [20]): 50 µg/mL
- MIC against E. coli BL21 (E. coli BL21; [21]): 50 µg/mL

Substance: PRT1151 (QFASCENNPCGNGATCVPKSGTDIVCLCPYGRSGPLCT; listed as Homo sapiens)
- MIC P. aeruginosa (Pseudomonas aeruginosa; [11]): 25 µg/mL
- MIC A. hydrophila (Aeromonas hydrophila; [11]): 25 µg/mL
- MIC M. catarrhalis (Moraxella catarrhalis; [11]): 25 µg/mL
- MIC C. diversus (Citrobacter diversus; [11]): 12.5 µg/mL
- MIC P. vulgaris (Proteus vulgaris; [11]): 12.5 µg/mL
- MIC (E. coli DH5α): 25 µg/mL
- MIC E. cloacae (Enterobacter cloacae; [11]): 25 µg/mL
- MIC S. marcescens (Serratia marcescens; [11]): 12.5 µg/mL
- MIC K. pneumonia (Klebsiella pneumonia; [11]): 50 µg/mL
- MIC P. mirabilis (Proteus mirabilis; [11]): 50 µg/mL
- MIC E. coli BL21 (E. coli BL21; [11]): 12.5 µg/mL
